Assay results published in patent publication US10363288B2, “Insulin mimotopes and methods of using the same” (THE REGENTS OF THE UNIVERSITY OF COLORADO, a body corporate, priority 2015, dated 2019).

Experiments:
NOD mouse = details: administered at low doses; cited from earlier work
CD4 T cells = experiment: CFSE proliferation assay of CD4 T cells from PBMCs of established T1D subjects; assay type: cell-based, human

SHLVEALYLVCGEEG [B: 9-23 B22E, B:9-23 mimotope; B22 arginine to glutamic acid]
inducing tolerance and preventing diabetes onset (NOD mouse): completely preventing diabetes onset | proliferation of CD4 T cells (CFSE dilution) (CD4 T cells): proliferation of CD4 T cells much more than the wild type peptide
